In this assay the test system is Sarcoptes mites. Put plainly: Treatment of Sarcoptes mites of sheep (skin scrapings, live mites). Format: in vivo. To be noted: 1% injection 0.2 mg/kg bw s.c.; for Negative conversion number: sheep (10 per group); for Negative conversion rate (%): sheep. An excerpt: Test agents: 1% ivermectin injection, 1% tenvermectin A injection and 1% tenvermectin B injection as obtained in Example 1.
Test animals and grouping: sheep grazed under the same conditions were selected. Upon parasitological examination, 40 sheep which had been infected with sheep Sarcoptes mites were selected. The 40 sheep were randomly divided into 4 groups, 10 heads for each group. The first group was the ivermectin control group, the second group was the tenvermectin A group, and the third group was the tenvermectin B group. All the medicated groups were injected subcutaneously in the neck according to 0.2 mg/kg·bw. The fourth group was a blank group and was not medicated.
Test methods: the changes of clinical symptoms were observed. The skin of sheep was scratched using a surgical blade with glycerin at the junction of the affected part and the healthy skin of the diseased sheep until the skin slightly bled. The skin scraps were taken then were placed in a dish and brought back to the laboratory. Then the skin scraps were placed on a slide, a drop of aqueous solution of 50% glycerol was added, and a cover slip was covered, and then the skin scraps were checked under a low magnification microscope. It was confirmed to be positive if live Sarcoptes mites were observed. Samples were taken before administration and at 1, 2, 3 and 4 weeks after administration to be examined. The samples were examined under a microscope, based on whether live mites were observed, the samples can be determined to be positive as long as one live mite was observed. Changes of clinical symptoms were observed as references.

Data on two molecules can be found in patent publication US20190151341A1, “APPLICATION OF TENVERMECTIN FOR PREVENTING AND TREATING PARASITE INFECTION” (ZHEJIANG HISUN PHARMACEUTICAL CO., LTD., priority 2016, published 2019).

For the molecule `COC1CC(OC2C(C)OC(OC3C(C)=CCC4CC(CC5(CCC(C)C(C)O5)O4)OC(=O)C4C=C(C)C(O)C5OCC(=CC=CC3C)C45O)CC2OC)OC(C)C1O` (stereo not shown) [Tenvermectin A, tenvermectin A], the Negative conversion number is 8 (1st week), 9 (2nd week), 10 (3rd week) and 10 (4th week). For the same molecule, the “Negative conversion rate (%)” value reads like this: (1st week) 80%; (2nd week) 90%; (3rd week) 100%; (4th week) 100%.

`CC[C@H]1O[C@]2(CC[C@@H]1C)C[C@@H]1C[C@@H](C/C=C(\C)[C@@H](O[C@H]3C[C@H](OC)[C@@H](O[C@H]4C[C@H](OC)[C@@H](O)[C@H](C)O4)[C@H](C)O3)[C@@H](C)/C=C/C=C3\CO[C@@H]4[C@H](O)C(C)=C[C@@H](C(=O)O1)[C@]34O)O2` [Tenvermectin B, tenvermectin B] returned a Negative conversion number (1st week) of 9, a Negative conversion number (2nd week) of 10, a Negative conversion number (3rd week) of 10 and a Negative conversion number (4th week) of 10. The “Negative conversion rate (%)” value by setting is: (1st week) 90%; (2nd week) 100%; (3rd week) 100%; (4th week) 100%.
